Measured values published in patent US20250188032A1, “NITROGEN-CONTAINING HETEROCYCLIC COMPOUNDS AND USES THEREOF” (BNH RESEARCH CO., LTD., priority 2022, published 2025).

Key:
[1] = system: SH-SY5Y cells; assay: Cytotoxicity test (CCK-8 cell viability) in SH-SY5Y cells; assay type: cell-based, human; settings: 0, 0.1, 1, 10, 100 μM
Description: (§1) Human undifferentiated neuroblastoma cell line SH-SY5Y and human embryonic kidney cell line (HEK)-293T were purchased from Korean Cell Line Bank (Korea) and Takara (Japan), respectively. Cells were grown in HyClone Minimal Essential Medium (MEM) and Dulbecco's Modified Eagle Medium (DMEM), respectively, supplemented with 10% (v/v) fetal bovine serum (FBS), penicillin (100 U/mL), and streptomycin ([…]). Cells were maintained in a humidified atmosphere of 95% air and 5% CO2 at 37° C. Cells were passaged 10 times at maximum. Cells were dissociated using 0.05% trypsin-EDTA solution and the cells were seeded in new culture dishes for maintenance.
To examine the cytotoxicity of compounds described herein in human cell lines, SH-SY5Y and 293T cells were used. […] Finally, 10 μL of CCK-8 reagent (Dojindo Laboratories, Rockville, MD) was added to each well, and after incubation at 37° C. for 3 minutes, the OD at 450 nm was measured using a multifunction microplate reader (Tecan Infinite M200 Pro). These measurements were compared to that of a control and expressed as a percentage of the control to calculate cell viability. The IC50 value was calculated using SPSS software. To do this, the absorbance of the blank wells with only growth medium is subtracted from the values or the wells with cells. […]

[2] = system: BDNF and GluN2B expression in SH-SY5Y cells; assay: Expression of BDNF and GluN2B in SH-SY5Y cells; assay type: cell-based, human; settings: 1 μM, application for 6 and 24 hours
Description: as §1

[3] = molecular target: HDAC1 (Homo sapiens, UniProt Q13547); assay: HDAC catalytic activity, fluorogenic substrate; assay type: biochemical; settings: 10-dose, 3-fold serial dilution starting at 100 μM, duplicates
Description: The compound (racemate) was resuspended in 100 mM DMSO and tested in a 10-dose IC50 with 3-fold serial dilution starting at 100 μM against HDACs 1-9, and 11. As reference compounds, Trichostatin A (TSA) and TMP269 were tested in a 10-dose IC50 with 3-fold serial dilution starting at 10 μM or 1 μM.
10 μM Fluorogenic peptide from p53 residues 379-382 (RHKK(Ac)AMC) was used for the substrate for HDAC 1, 2, 3, and 6, 50 μM Fluorogenic HDAC Class2a Substrate (Trifluoroacetyl Lysine) was used for the substrate for HDAC 4, 5, 7, 9, and 11, 100 μM Fluorogenic peptide from p53 residues 379-382 (RHK(Ac)K(Ac)AMC) was used for the substrate for HDAC8.
IC50 values were calculated using the GraphPad Prism 4 program based on a sigmoidal dose-response equation and the blank (DMSO) value concentration was entered as 1.00E-12 M for curve fitting.

[4] = system: GluN2B; assay: Western blot of GluN2B protein in cultured fetal cortical cells; assay type: cell-based, mice
Description: The amount of GluN2B reacted with the compound of the present disclosure was measured using Western blot. The fetal cerebral cortex was extracted from mice at 17 days of gestation, dissociated into single cells, cultured for 13 days, and treated with BnH drugs for 24 hours. The drug-treated cells were subjected to protein lysate preparation using RIPA protein lysis buffer containing protease and phosphatase inhibitors. The protein concentration was determined using a BCA protein assay kit (Pierce Biotechnology) using bovine serum albumin as a standard. Equal amounts of protein (20 μg per lane) were separated by electrophoresis on SDS-polyacrylamide gels at 90 V for 2 hours, then transferred from the SDS-polyacrylamide gel to PVDF membrane at 100 V for 1 hour. Then, primary reaction with GluN2B antibody (ab65783, Abcam) was performed at 4° C. for 1 day, washed three times at 10-minutes intervals with 1×PBT, and secondary reaction was performed with anti-mouse antibody (sc-2357, Santa Cruz) for 1 hour, followed by washing three times at 10-minutes intervals with 1×PBT. Western blotting was performed as described above to confirm GluN2B protein expression. Subsequently, each blot was re-probed using anti-β-actin antibody (sc-47778, Santa Cruz). Housekeeping protein β-actin was detected as a normalization control.
The increase and decrease of BnH12 series were confirmed by setting the vehicle to 1 (N for each group was 3 or more).
Using the experimental procedure described in Example 3, it was determined whether various BnH12 series compounds increase GluN2B expression, and the results are shown in Table 6. These in vitro experimental results are expressed as relative values to the group (vehicle) that was not treated with the compound, with the effect of the group set to 1.

Sequence of HDAC1 (Q13547 whole entry): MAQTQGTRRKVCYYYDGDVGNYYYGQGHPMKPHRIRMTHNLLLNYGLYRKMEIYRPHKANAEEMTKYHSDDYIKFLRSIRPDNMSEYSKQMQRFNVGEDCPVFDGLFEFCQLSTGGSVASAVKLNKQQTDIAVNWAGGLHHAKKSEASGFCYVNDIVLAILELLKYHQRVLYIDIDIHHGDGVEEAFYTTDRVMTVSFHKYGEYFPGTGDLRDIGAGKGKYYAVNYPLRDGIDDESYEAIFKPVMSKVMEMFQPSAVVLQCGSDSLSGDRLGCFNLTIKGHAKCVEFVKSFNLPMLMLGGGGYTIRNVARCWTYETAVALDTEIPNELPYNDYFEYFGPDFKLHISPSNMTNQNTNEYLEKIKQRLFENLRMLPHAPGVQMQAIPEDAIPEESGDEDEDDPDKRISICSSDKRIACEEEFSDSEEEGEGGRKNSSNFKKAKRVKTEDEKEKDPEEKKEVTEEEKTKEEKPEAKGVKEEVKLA

Inhibitory effect on HDAC1 catalytic activity [3]	SMILES	Change in cell viability [1]	BDNF expression [2]	GluN2B expression [2]	Effect on GluN2B expression compared to the vehicle ([4]; comment on Table 6)	GluN2B expression, Western blot results, Mean ([4]; relative value, vehicle set to 1, treated for 24 hours, N 3 or more)
did not show any inhibitory effect	CC1CCC(C(=O)O)CN1C(=O)Cc1ccc(F)cc1Cl (racemic) [BnH12001, 1-(2-(2-chloro-4-fluorophenyl)acetyl)-6-methylpiperidine-3-carboxylic acid]	no significant change in cell viability	augmented	augmented		
	C[C@@H]1CC[C@H](C(=O)O)CN1C(=O)Cc1ccc(F)cc1Cl [BnH12001 enantiomer (3S,6R, 98%<), (3S,6R)-1-(2-(2-chloro-4-fluorophenyl)acetyl)-6-methylpiperidine-3-carboxylic acid]				excellent effects	1.548
